Consider three compounds from US12533390B2, “Methods and compositions for treatment of Endothelin B receptor expressing tumors” (ENB Therapeutics, Inc., priority 2015, dated 2026).

Entries after “also recorded” stand apart in the source; their conditions may differ.

The subject of data set [1] is SKMEL28 human melanoma cells. The data set is described as follows: SKMEL28 human melanoma xenograft in mice, tumor weight and lung metastases. The class given is in vivo. The protocol: BQ788 inhibits melanoma growth and metastasis (FIGS. 4A and 4B). […] Mice were implanted with 1×10^6 SKMEL28 human melanoma cells. Tumors were established for 10 days until palpable then 120 ng ([…]) BQ788 dissolved in DMSO was injected IP 3× per week x 6 weeks. Mice were then sacrificed and lungs harvested and tumors weighed. A 75% reduction in tumor weight was observed.
A general note: A xenograft is tissue or cells of one species grown in another, often human tumour cells in immunodeficient mice.

Data set [2] in a line: Body weight of athymic nude mice under intranasal BQ788 over 42 days. Format: in vivo. The protocol: FIG. 9. ETAR antagonist and Niacinamide mitigate weight loss from BQ788. Six week old athymic nude mice were administered the ETBR antagonist BQ788 intranasally in 20% DMSO at the indicated ascending doses over a period of 42 days. One group was additionally administered the ETAR antagonist Macitentan orally at a dose of 5 mg/kg daily. The drinking water of these mice was supplemented with the B vitamin niacinamide at a concentration of 0.3 mg/mL. […] Animals thus treated were able to maintain body weight throughout the study. Co-administration of ETAR antagonists and niacinamide with ETBR antagonists mitigated the adverse effects of ETBR antagonists when administered for therapeutic purposes.
ETAR antagonist and Niacinamide mitigate weight loss from BQ788 ([…]). Six week old athymic nude mice (n=3 per group) were administered the ETBR antagonist BQ788 intranasally in 20% DMSO at the indicated ascending doses over a period of 42 days. One group was additionally administered the ETAR antagonist Macitentan orally at a dose of 5 mg/kg daily. The drinking water of these mice was supplemented with the B vitamin niacinamide at a concentration of 0.3 mg/mL. […] Animals thus treated were able to maintain body weight throughout the study. […]

The target in a further data set is T1, ETBR (Homo sapiens, UniProt P24530).
T1 sequence (P24530 27-442): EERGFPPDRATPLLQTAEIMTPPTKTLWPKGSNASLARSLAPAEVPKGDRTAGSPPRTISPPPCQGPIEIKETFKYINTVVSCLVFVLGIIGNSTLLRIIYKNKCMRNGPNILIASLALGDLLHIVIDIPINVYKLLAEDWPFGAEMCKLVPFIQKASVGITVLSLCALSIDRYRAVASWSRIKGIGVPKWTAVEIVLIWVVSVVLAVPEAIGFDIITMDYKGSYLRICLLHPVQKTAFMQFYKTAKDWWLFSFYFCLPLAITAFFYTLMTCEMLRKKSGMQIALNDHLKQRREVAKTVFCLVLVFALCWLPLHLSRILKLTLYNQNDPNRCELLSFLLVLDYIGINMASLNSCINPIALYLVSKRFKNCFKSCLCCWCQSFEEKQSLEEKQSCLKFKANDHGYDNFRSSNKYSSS
The note with it: ETBR antagonist, no method given, cited from earlier work.

Data set [3] concerns A375 human melanoma cells. The data set can be described thus: Subcutaneous A375 human melanoma xenograft in Nu/J nude mice. The class given is in vivo. Particulars: Dabrafenib 100 mg/Kg PO daily, alone or with BQ788 600 ng IP TIW; A375 tumors 150-200 mm3 at start. The protocol:
FIG. 7. BQ788 synergizes with Dabrafenib in vivo. A375 human melanoma cells were implanted subcutaneously into the rear flank of Nu/J nude mice and allowed to grow to 150 mm3-200 mm3 prior to randomization and initiation of treatment. The mice received the following treatments: (1) vehicle (n=8), (2) Dabrafenib 100 mg/Kg PO daily (n=5), and (3) Dabrafenib+BQ788 600 ng IP TIW (n=5).
BQ788 synergizes with a bRAF inhibitor in vivo (FIG. 7). A375 human melanoma cells (3×10^6) were implanted subcutaneously into the rear flank of Nu/J nude mice and allowed to grow to 150 mm3-200 mm3 prior to randomization and initiation of treatment. The treatment groups were as follows: (1) vehicle (n=8), Dabrafenib 100 mg/Kg PO daily (n=5), (2) Dabrafenib+BQ788 600 ng IP 3 x per week (n=5).

Data set [4] deals with melanoma cell lines overexpressing ETBR. The data set is described as follows: Mouse melanoma brain metastasis model, xenografts of ETBR-overexpressing melanoma cell lines. Format: in vivo, mice. Particulars: A192621 60 mg/kg/day. The protocol: FIGS. 5A, 5B, 5C, 5D, and 5E. ETBR antagonist inhibits melanoma brain metastasis in mice. […] In this study, lentiviral vectors were used to overexpress ETBR in melanoma cell lines, which were in turn used to implant xenografts in mice.
A192621 inhibits melanoma brain metastasis in mice (FIGS. 5A, 5B, 5C, 5D, and 5E). […] A192621 was administered at a dose of 60 mg/kg/day using a mouse melanoma model. […] In this study, lentiviral vectors were used to overexpress ETBR in melanoma cell lines, which were in turn used to implant xenografts in mice. […]

Regarding `CCCC[C@@H](NC(=O)[C@@H](Cc1cn(C(=O)OC)c2ccccc12)NC(=O)[C@H](CC(C)(C)C)NC(=O)N1[C@H](C)CCC[C@@H]1C)C(=O)[O][Na+]` [BQ788], in data set [1] (120 ng (~60 μg/kg) BQ788 in DMSO IP 3x per week x 6 weeks, SKMEL28 tumors in mice), the “reduction in tumor weight” value is 75%. Also, the “clearance of lung metastases” value in data set [1] (120 ng BQ788 IP 3x per week x 6 weeks, lung specimens vs control mice) was more than 95%. Besides, the “average weight loss relative to baseline body weight” value in data set [2] (BQ788 alone intranasally in 20% DMSO, ascending doses, end of 42 day study) is reported as 5%. For the same compound, the “effect on body weight / thriving” value in data set [2] (BQ788 intranasally, ascending doses over 42 days, with or without Macitentan 5 mg/kg orally daily and niacinamide 0.3 mg/mL in drinking water) is “failed to thrive”. Moreover, the 50% inhibitory concentration (IC50) (in general, the midpoint of a concentration-inhibition curve) on ETBR (for BQ788 printed as inhibitor of ETBR-related melanoma cell growth) is 1.2 nM. On ETBR, the Ki (usually the dissociation constant of the complex between target and ligand, obtained from inhibition or displacement) was 17.8 nM.
For `CC(C)(C)c1nc(-c2cccc(NS(=O)(=O)c3c(F)cccc3F)c2F)c(-c2ccnc(N)n2)s1` [Dabrafenib], the tumor growth result in data set [3] is listed as “retarded the growth of tumors; also recorded: retarded tumor growth”.
For `CCCOc1ccc([C@H]2[C@H](C(=O)O)[C@@H](c3ccc4c(c3)OCO4)CN2CC(=O)Nc2c(CC)cccc2CC)cc1` [A192621, (2R,3R,4S)-4-(1,3-benzodioxol-5-yl)-1-[2-(2,6-diethylanilino)-2-oxoethyl]-2-(4-propoxyphenyl) pyrrolidine-3-carboxylic acid], in data set [4], the CNS melanoma tumors result was “shrinks CNS melanoma tumors”, the brain melanoma metastases result is listed as “shrinks brain melanoma metastases” and the survival result is “increases survival”.
